Laboratory results published in patent US10442803B2, “Tricyclic heterocycles as bet protein inhibitors” (Incyte Corporation, priority 2013, dated 2019).
Structures can show the parent of a compound that is named as a salt.

Test system: KMS.12.BM cells
Assay: KMS.12.BM cell viability assay
Type: cell-based
Conditions: 72 h; KMS.12.BM human myeloma cells, 3 days, Cell Titer-GLO ATP quantitation; read-out: KMS cellular IC50
Experimental: KMS.12.BM cell line (human myeloma) was purchased from JCRB (Osaka, Japan) and maintained in RPMI with 10% FBS culture medium. To measure the cytotoxic activity of the compounds through ATP quantitation, the KMS.12.BM cells are plated in the RPMI culture medium at 5000 cells/well/per 100 μL into a 96-well polystyrene clear black tissue culture plate (Greiner-bio-one through VWR, NJ), in the presence or absence of a concentration range of test compounds. After 3 days, […] Cell Titer-GLO Luminescent (Promega, Madison, Wis.) cell culture agent is added to each well for 10 minutes at room temperature to stabilize the luminescent signal. This determines the number of viable cells in culture based on quantitation of the ATP present, which signals the presence of metabolically active cells. Luminescence is measured with the Top Count 384 (Packard Bioscience through Perkin Elmer, Boston, Mass.).
IC50 data for the Examples is presented in Table 4 as determined by Assay B1.

Row | SMILES | IC50
1 | Cc1cc2c(cc(NC3CCCN(C)C3)c3nnc(C)n32)n1Cc1ccccc1 (racemic) [Example 144, 6-benzyl-1,7-dimethyl-N-(1-methylpiperidin-3-yl)-6H-pyrrolo[2,3-e][1,2,4]triazolo[4,3-a]pyridin-4-amine (racemic)] | 1000 to 10000 nM
2 | Cc1nnc2ccc3c(cc(C(=O)N[C@H]4C[C@@H](C#N)C4)n3Cc3ccccc3)n12 [Example 101, 6-benzyl-N-(cis-3-cyanocyclobutyl)-1-methyl-6H-pyrrolo[2,3-e][1,2,4]triazolo[4,3-a]pyridine-7-carboxamide] | 1000 to 10000 nM
3 | CC(=O)Nc1cc2c(cc(C)n2Cc2ccccc2)n2c(C)nnc12 [Example 266, N-(6-Benzyl-1,7-dimethyl-6H-pyrrolo[2,3-e][1,2,4]triazolo[4,3-a]pyridin-4-yl)acetamide] | ≤ 1000 nM
4 | CNC(=O)c1cc2c(ccc3nnc(C)n32)n1Cc1cc(Cl)cc(CN2CCC(F)(F)C2)c1 [Example 134, 6-{3-Chloro-5-[(3,3-difluoropyrrolidin-1-yl)methyl]benzyl}-N,1-dimethyl-6H-pyrrolo[2,3-e][1,2,4]triazolo[4,3-a]pyridine-7-carboxamide 2.4×(trifluoroacetate) salt] | ≤ 1000 nM
5 | CCC(=O)Nc1cc2c(cc(C)n2Cc2ccccc2)n2c(C)nnc12 [Example 268, N-(6-Benzyl-1,7-dimethyl-6H-pyrrolo[2,3-e][1,2,4]triazolo[4,3-a]pyridin-4-yl)propionamide] | ≤ 1000 nM
6 | CCNCc1cccc(Cn2c(C)cc3c2ccc2nnc(C)n23)c1 [Example 42, N-{3-[(1,7-dimethyl-6H-pyrrolo[2,3-e][1,2,4]triazolo[4,3-a]pyridin-6-yl)methyl]benzyl}ethanamine] | ≤ 1000 nM
7 | Cc1nnc2ccc3c(cc(-c4ccn(C5CN(S(=O)(=O)C6CC6)C5)n4)n3Cc3cccc(Cl)c3)n12 [Example 165, 6-(3-Chlorobenzyl)-7-{1-[1-(cyclopropylsulfonyl)azetidin-3-yl]-1H-pyrazol-3-yl}-1-methyl-6H-pyrrolo[2,3-e][1,2,4]triazolo[4,3-a]pyridine trifluoroacetate salt] | ≤ 1000 nM
8 | CCN1CCC(Nc2cc3c(cc(C)n3Cc3ccccc3)n3c(C)nnc23)CC1 [Example 212, 6-Benzyl-N-(1-ethylpiperidin-4-yl)-1,7-dimethyl-6H-pyrrolo[2,3-e][1,2,4]triazolo[4,3-a]pyridin-4-amine] | ≤ 1000 nM
9 | Cc1cc2c(ccc3nnc(C)n32)n1Cc1cccc(CN2CCC2)c1 [Example 28, 6-[3-(azetidin-1-ylmethyl)benzyl]-1,7-dimethyl-6H-pyrrolo[2,3-e][1,2,4]triazolo[4,3-a]pyridine] | ≤ 1000 nM
10 | Cc1nnc2ccc3c(cc(-c4ccn(CCC(=O)N5CCN(C)CC5)n4)n3Cc3cccc(Cl)c3)n12 [Example 105, 6-(3-chlorobenzyl)-1-methyl-7-{1-[3-(4-methylpiperazin-1-yl)-3-oxopropyl]-1H-pyrazol-3-yl}-6H-pyrrolo[2,3-e][1,2,4]triazolo[4,3-a]pyridine] | ≤ 1000 nM
11 | Cc1nnc2ccc3c(cc(Cn4ccnc4)n3Cc3ccccc3)n12 [Example 57, 6-benzyl-7-(1H-imidazol-1-ylmethyl)-1-methyl-6H-pyrrolo[2,3-e][1,2,4]triazolo[4,3-a]pyridine] | 1000 to 10000 nM
12 | Cc1nnc2ccc3c(cc(-c4ccn(C)n4)n3Cc3cc(Cl)cc(CN4CCOCC4)c3)n12 [Example 192, 6-[3-Chloro-5-(morpholin-4-ylmethyl)benzyl]-1-methyl-7-(1-methyl-1H-pyrazol-3-yl)-6H-pyrrolo[2,3-e][1,2,4]triazolo[4,3-a]pyridine bis(trifluoroacetate) salt] | ≤ 1000 nM
13 | Cc1cc2c(ccc3nnc(C)n32)n1Cc1cccc(CN2CCNCC2)c1 [Example 48, 1,7-dimethyl-6-[3-(piperazin-1-ylmethyl)benzyl]-6H-pyrrolo[2,3-e][1,2,4]triazolo[4,3-a]pyridine] | 1000 to 10000 nM
14 | CCNC(=O)c1cc2c(ccc3nnc(C)n32)n1Cc1cccc(CN2CCC2)c1 [Example 121, 6-[3-(Azetidin-1-ylmethyl)benzyl]-N-ethyl-1-methyl-6H-pyrrolo[2,3-e][1,2,4]triazolo[4,3-a]pyridine-7-carboxamide bis(trifluoroacetate) salt] | ≤ 1000 nM
15 | CC(=O)Nc1cccc(Cn2c(C)cc3c2ccc2nnc(C)n23)c1 [Example 25, N-{3-[(1,7-dimethyl-6H-pyrrolo[2,3-e][1,2,4]triazolo[4,3-a]pyridin-6-yl)methyl]phenyl}acetamide trifluoroacetate salt] | ≤ 1000 nM
16 | Cc1cc2c(cc(NCCCN(C)C)c3nnc(C)n32)n1Cc1ccccc1 [Example 245, N1-(6-Benzyl-1,7-dimethyl-6H-pyrrolo[2,3-e][1,2,4]triazolo[4,3-a]pyridin-4-yl)-N3,N3-dimethylpropane-1,3-diamine] | ≤ 1000 nM
17 | CNC(=O)Nc1cc2c(cc(C)n2Cc2cc(Cl)cc(CN3CCCC3)c2)n2c(C)nnc12 [Example 142, N-{6-[3-Chloro-5-(pyrrolidin-1-ylmethyl)benzyl]-1,7-dimethyl-6H-pyrrolo[2,3-e][1,2,4]triazolo[4,3-a]pyridin-4-yl}-N′-methylurea bis(trifluoroacetate) salt] | ≤ 1000 nM

Row | SMILES | IC50
18 | Cc1nnc2ccc3c(cc(CCO)n3Cc3ccccc3)n12 [Example 61, 2-(6-benzyl-1-methyl-6H-pyrrolo[2,3-e][1,2,4]triazolo[4,3-a]pyridin-7-yl)ethanol] | 1000 to 10000 nM
19 | Cc1nnc2ccc3c(cc(-c4c[nH]cn4)n3Cc3ccccc3)n12 [Example 74, 6-benzyl-7-(1H-imidazol-4-yl)-1-methyl-6H-pyrrolo[2,3-e][1,2,4]triazolo[4,3-a]pyridine] | ≤ 1000 nM
20 | Cc1cc2c(cc(Nc3ncccn3)c3nnc(C)n32)n1Cc1ccccc1 [Example 201, 6-Benzyl-1,7-dimethyl-N-pyrimidin-2-yl-6H-pyrrolo[2,3-e][1,2,4]triazolo[4,3-a]pyridin-4-amine tris(trifluoroacetate) salt] | ≤ 1000 nM
21 | Cc1cc2c(ccc3nnc(C)n32)n1Cc1cccc(NC(N)=O)c1 [Example 44, N-{3-[(1,7-dimethyl-6H-pyrrolo[2,3-e][1,2,4]triazolo[4,3-a]pyridin-6-yl)methyl]phenyl}urea] | 1000 to 10000 nM
22 | CNC(=O)c1cc2c(ccc3nnc(C)n32)n1Cc1cc(Cl)cc(CN2CC(C)(C)C2)c1 [Example 135, 6-{3-Chloro-5-[(3,3-dimethylazetidin-1-yl)methyl]benzyl}-N,1-dimethyl-6H-pyrrolo[2,3-e][1,2,4]triazolo[4,3-a]pyridine-7-carboxamide bis(trifluoroacetate) salt] | ≤ 1000 nM
23 | CCNC(=O)Nc1cccc(Cn2c(C)cc3c2ccc2nnc(C)n23)c1 [Example 43, N-{3-[(1,7-dimethyl-6H-pyrrolo[2,3-e][1,2,4]triazolo[4,3-a]pyridin-6-yl)methyl]phenyl}-N′-ethylurea trifluoroacetate salt] | 1000 to 10000 nM
24 | Cc1nnc2ccc3c(cc(-c4ccn(CCC(=O)NC5CN(C)C5)n4)n3Cc3cccc(Cl)c3)n12 [Example 171, 3-{3-[6-(3-Chlorobenzyl)-1-methyl-6H-pyrrolo[2,3-e][1,2,4]triazolo[4,3-a]pyridin-7-yl]-1H-pyrazol-1-yl}-N-(1-methylazetidin-3-yl)propanamide bis(trifluoroacetate) salt] | ≤ 1000 nM
25 | Cc1cc2c(ccc3nnc(C)n32)n1Cc1cccc(CN2CCN(C)CC2)c1 [Example 47, 1,7-dimethyl-6-{3-[(4-methylpiperazin-1-yl)methyl]benzyl}-6H-pyrrolo[2,3-e][1,2,4]triazolo[4,3-a]pyridine] | 1000 to 10000 nM
26 | CCCNC(=O)c1cc2c(ccc3nnc(C)n32)n1Cc1ccccc1 [Example 83, 6-benzyl-1-methyl-N-propyl-6H-pyrrolo[2,3-e][1,2,4]triazolo[4,3-a]pyridine-7-carboxamide] | ≤ 1000 nM
27 | Cc1nnc2ccc3c(cc(-c4ccn(CCN(C)C)n4)n3Cc3ccccc3)n12 [Example 89, 2-[3-(6-benzyl-1-methyl-6H-pyrrolo[2,3-e][1,2,4]triazolo[4,3-a]pyridin-7-yl)-1H-pyrazol-1-yl]-N,N-dimethylethanamine] | ≤ 1000 nM
28 | Cc1nnc2ccc3c(cc(C4=NCCO4)n3Cc3cccc(Cl)c3)n12 [Example 193, 6-(3-Chlorobenzyl)-7-(4,5-dihydro-1,3-oxazol-2-yl)-1-methyl-6H-pyrrolo[2,3-e][1,2,4]triazolo[4,3-a]pyridine] | ≤ 1000 nM
29 | Cc1cc2c(ccc3nnc(C)n32)n1Cc1ccc2ccccc2n1 [Example 21, 1,7-dimethyl-6-(quinolin-2-ylmethyl)-6H-pyrrolo[2,3-e][1,2,4]triazolo[4,3-a]pyridine] | ≤ 1000 nM
30 | Cc1cc2c(ccc3nnc(C)n32)n1Cc1ccc(Cl)cc1 [Example 10, 6-(4-chlorobenzyl)-1,7-dimethyl-6H-pyrrolo[2,3-e][1,2,4]triazolo[4,3-a]pyridine] | ≤ 1000 nM
31 | Cc1cc2c(ccc3nnc(C)n32)n1CC1CCCC1 [Example 13, 6-(cyclopentylmethyl)-1,7-dimethyl-6H-pyrrolo[2,3-e][1,2,4]triazolo[4,3-a]pyridine] | 1000 to 10000 nM
32 | CNCc1cccc(Cn2c(C)cc3c2ccc2nnc(C)n23)c1 [Example 41, 1-{3-[(1,7-dimethyl-6H-pyrrolo[2,3-e][1,2,4]triazolo[4,3-a]pyridin-6-yl)methyl]phenyl}-N-methylmethanamine] | ≤ 1000 nM
33 | Cc1nnc2ccc3c(ccn3S(=O)(=O)c3ccccc3)n12 [Example 3, 1-methyl-6-(phenylsulfonyl)-6H-pyrrolo[2,3-e][1,2,4]triazolo[4,3-a]pyridine] | 1000 to 10000 nM
